Source: patent US8785459B2, “Quinazoline compounds as kinase inhibitors” (Development Center for Biotechnology, priority 2011, dated 2014)

Assays:
Assay type in all cases: biochemical
[1] = target: B-Raf (Homo sapiens (Human), UniProt P15056); assay: Raf kinase assay (B-Raf), [33P] incorporation into MEK1(K97R); conditions: for inhibition at 1 µM: 1.0 μM compound, read-out: B-Raf inhibition at 1.0 μM
Procedure, shortened: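 Recombinant C-Raf (2 ng) or B-Raf or B-Raf V600E (5 ng each) phosphorylated 500 ng MEK1(K97R) with 8 μM ATP plus [33P]ATP, pH 7.5, 30 min at 30 °C. Filter-captured 33P counted. IC50 from 3-fold compound dilutions run in duplicate.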

[2] = target: EGFR kinase (Homo sapiens (Human), UniProt P00533); assay: EGFR kinase assay
EGFR kinase, sequence (P00533 712-979): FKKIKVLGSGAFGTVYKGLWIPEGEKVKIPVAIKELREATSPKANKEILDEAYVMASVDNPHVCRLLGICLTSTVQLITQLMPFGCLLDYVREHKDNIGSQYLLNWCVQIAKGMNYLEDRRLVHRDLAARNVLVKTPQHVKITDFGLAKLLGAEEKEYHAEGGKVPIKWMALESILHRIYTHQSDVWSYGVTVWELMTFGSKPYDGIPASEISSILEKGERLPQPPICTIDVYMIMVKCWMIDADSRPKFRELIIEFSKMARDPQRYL
Description: Inhibition of EGFR kinase activity by compounds disclosed herein is quantified by measuring the amount of [^33P] incorporated into the substrate in the presence of a test compound. Briefly, a reaction mixture of 25 μL final volume containing 25 ng of EGFR kinase (EGFR kinase domain alone, Millipore), 3 μg of the substrate [poly(Glu-Tyr), Sigma], kinase reaction buffer (10 mM MOPS pH 7.0, 0.3 mM EDTA, 0.5% glycerol, 0.001% Brij-35, 10 mM MnCl2, 0.1 mg/ml BSA, 100 μM ATP, 0.1 μCi per well [^33P]-γ-ATP (2,500-3,000 Ci/mmol)), and a test compound (100 nM, diluted with 4% DMSO) or DMSO (as the control) was incubated at 30° C. for 30 minutes. The reaction was stopped by adding 5 μL of 3% phosphoric acid solution. The resultant reaction solution was then harvested onto a filter plate (UniFilter-96 GF/B, PerkinElmer), washed 20 times for 5 min with d.d. H2O, and followed by the addition of 30 μL of MicroScint™-20 Cocktail (PerkinElmer). The radioactivity retained on the filter membrane was measured by TopCount™ scintillation detector (PerkinElmer). The results were analyzed by using linear regression software (GraphPad Prism™ 4; GraphPad Software Inc.). IC50 value is defined as the concentration of the test compound which achieves a half-maximal inhibition of the kinase activity.

[3] = target: EGFR (T790M) kinase (Homo sapiens (Human), UniProt P00533, T790M); assay: EGFR (T790M) kinase assay
EGFR (T790M) kinase, sequence (P00533 712-979 T790M): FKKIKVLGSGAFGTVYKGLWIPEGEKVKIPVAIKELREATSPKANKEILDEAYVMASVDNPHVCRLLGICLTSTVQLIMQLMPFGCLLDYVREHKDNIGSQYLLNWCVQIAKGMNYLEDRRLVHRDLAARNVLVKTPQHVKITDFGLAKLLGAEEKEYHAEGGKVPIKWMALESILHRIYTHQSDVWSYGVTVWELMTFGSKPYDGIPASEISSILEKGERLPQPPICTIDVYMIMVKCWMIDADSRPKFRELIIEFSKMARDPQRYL
Description: C. EGFR (T790M) Kinase Assay
Inhibition of EGFR (T790M) kinase activity by compounds disclosed herein was quantified by measuring the amount of [^33P] incorporated into the substrate in the presence of a test compound. Briefly, a reaction mixture of 25 μL final volume containing 25 ng of EGFR (T790M) kinase (EGFR (T790M) kinase domain alone, Millipore), 5 μg of the substrate [poly(Glu-Tyr), Sigma], kinase reaction buffer (10 mM MOPS pH 7.0, 0.3 mM EDTA, 0.5% glycerol, 0.001% Brij-35, 10 mM MnCl2, 0.1 mg/ml BSA, 100 μM ATP, 0.1 μCi per well [^33P]-γ-ATP (2,500-3,000 Ci/mmol)), and a test compound (100 nM; diluted with 4% DMSO) or DMSO (as the control) was incubated at 30° C. for 60 minutes. The reaction was stopped by adding 5 μL of 3% phosphoric acid solution. The resultant reaction solution was then harvested onto a filter plate (UniFilter-96 GF/B, PerkinElmer), washed 20 times for 5 min with d.d. […] The radioactivity retained on the filter membrane was measured by TopCount™ scintillation detector (PerkinElmer). The results were analyzed by using linear regression software (GraphPad Prism™ 4; GraphPad Software Inc.). The percentage of inhibition of EGFR (T790M) by the test compound was calculated by dividing the retained radioactivity of the test sample with the retained radioactivity of the control sample and shown in Table 4.

[4] = target: FLT3 kinase (Homo sapiens (Human), UniProt P36888); assay: FLT3 kinase assay
FLT3 kinase, sequence (P36888 610-943): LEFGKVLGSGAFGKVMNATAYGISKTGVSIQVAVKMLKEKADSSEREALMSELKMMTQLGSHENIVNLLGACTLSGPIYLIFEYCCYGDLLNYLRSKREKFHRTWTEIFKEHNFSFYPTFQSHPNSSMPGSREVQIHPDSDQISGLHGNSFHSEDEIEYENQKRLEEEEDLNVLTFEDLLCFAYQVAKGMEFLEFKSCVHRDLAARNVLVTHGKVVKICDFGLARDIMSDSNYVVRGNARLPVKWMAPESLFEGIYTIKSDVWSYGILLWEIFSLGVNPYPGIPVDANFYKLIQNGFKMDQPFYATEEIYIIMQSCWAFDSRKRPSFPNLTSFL
Description: Inhibition of FLT3 kinase activity by compounds disclosed herein was quantified by measuring the amount of [^33P] incorporated into the substrate in the presence of a test compound. Briefly, a reaction mixture of 25 μL final volume containing 5 ng of Flt3 kinase (obtained by purifying recombinant N-terminal 6×His-tagged Flt3 kinase domain construct expressed from baculovirus), 5 μg of the substrate (Poly(Glu-Tyr, 4:1, Sigma)), kinase reaction buffer (20 mM MOPS pH 7.0, 1 mM EDTA, 5% glycerol, 0.01% Brij-35, 0.1% β-mercaptoethanol, 1 mg/mL BSA, 100 μM ATP, 0.1 μCi per well [^33P]-γ-ATP (2,500-3,000 Ci/mmol)), and a test compound (100 nM, diluted with 4% DMSO) or DMSO (as the control) was incubated at 30° C. for 30 minutes. The reaction was stopped by adding 5 μL of 3% phosphoric acid solution. The resultant reaction solution was then harvested onto a filter plate (UniFilter-96 GF/B, PerkinElmer), washed 20 times for 5 min with d.d. H2O, and followed by the addition of 30 μL of MicroScint™-20 Cocktail (PerkinElmer). The plate was then sealed and counted using a TopCount™ scintillation detector (PerkinElmer). IC50 value is defined as the concentration of the test compound which achieves a half-maximal inhibition of the kinase activity.

B-Raf, sequence (P15056 whole entry): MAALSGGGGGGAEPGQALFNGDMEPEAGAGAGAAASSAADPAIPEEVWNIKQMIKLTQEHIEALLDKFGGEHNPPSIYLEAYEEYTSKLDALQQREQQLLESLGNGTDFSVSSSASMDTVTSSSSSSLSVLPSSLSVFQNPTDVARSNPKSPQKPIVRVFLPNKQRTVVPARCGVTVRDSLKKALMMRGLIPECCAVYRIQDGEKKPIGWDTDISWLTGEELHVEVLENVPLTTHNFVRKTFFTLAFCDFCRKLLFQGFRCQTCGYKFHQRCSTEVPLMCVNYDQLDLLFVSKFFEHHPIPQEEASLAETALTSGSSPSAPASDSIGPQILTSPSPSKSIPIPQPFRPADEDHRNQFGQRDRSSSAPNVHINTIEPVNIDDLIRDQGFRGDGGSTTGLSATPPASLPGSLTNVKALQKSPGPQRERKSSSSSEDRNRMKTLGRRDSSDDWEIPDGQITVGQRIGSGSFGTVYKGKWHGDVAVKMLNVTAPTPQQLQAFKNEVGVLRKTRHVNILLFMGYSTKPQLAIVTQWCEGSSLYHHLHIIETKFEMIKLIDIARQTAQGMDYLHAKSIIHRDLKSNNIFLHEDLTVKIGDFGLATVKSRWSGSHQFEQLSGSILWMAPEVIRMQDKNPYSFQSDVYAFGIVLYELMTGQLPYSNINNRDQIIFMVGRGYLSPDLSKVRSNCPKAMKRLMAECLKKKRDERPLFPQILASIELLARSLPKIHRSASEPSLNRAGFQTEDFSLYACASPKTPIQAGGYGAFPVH

IC50 [1] [nM]	inhibition at 1 µM [1] [%]	IC50 [2] [nM]	inhibition at 1 µM [3] [%]	IC50 [4] [nM]	Compound
30.2	94.2	18.7	66	271	COc1cc(-c2ccc3ncnc(Nc4cccc(O)c4)c3c2)ccc1O [Compound 8, 4-(4-(3-hydroxyphenylamino)quinazolin-6-yl)-2-methoxyphenol]
16.1	92.6	14.9	60	137	COc1cc(-c2ccc3ncnc(Nc4cc(O)ccc4F)c3c2)ccc1O [Compound 58, 4-(4-(2-fluoro-5-hydroxyphenylamino)quinazolin-6-yl)-2-methoxyphenol]
